Data from paper PMC10100771, “A Novel CMY Variant Confers Transferable High-Level Resistance to Ceftazidime-Avibactam in Multidrug-Resistant Escherichia coli” (Microbiology Spectrum, 2023).
In brackets after ≈: the same amount, converted by molar mass.

Tests used:
E. coli strain AR13438 = test: MIC by agar dilution, clinical isolate AR13438; format: cell-based, Escherichia coli; details: for Antimicrobial susceptibility category: AR13438, CLSI breakpoints (M100, 31st edition); for MIC: Escherichia coli, AR13438, clinical E. coli isolate (blaCMY-178, blaTEM-1, blaCTX-M-27), agar dilution
Procedure: (§1) Antimicrobial susceptibility testing was performed and interpreted according to the Clinical and Laboratory Standards Institute (CLSI) guidelines and breakpoints (M100, 31st edition) by the agar dilution method. E. coli ATCC 25922 and K. pneumoniae ATCC 700603 served as control strains.
(§2) The antibiotics we used included meropenem (Hanhui Pharmaceutical Co., Ltd., China), imipenem (Merck Sharp & Dohme Corp., USA), cefepime (Jiangsu Hengrui Pharmaceutical Co., Ltd., China), piperacillin (Suzhou Erye Pharmaceutical Co., Ltd., China), ceftazidime (Guangdong Jincheng Jinsu Pharmaceutical Co., Ltd., China), tazobactam (Meilunbio, China), avibactam (MedChemExpress, USA), aztreonam (Sigma-Aldrich, USA), amikacin (Meilunbio), cefuroxime (Esseti Farmaceutici S.r.l., Italy), fosfomycin (Harbin Pharmaceutical Group Co., Ltd. China), levofloxacin (Daiichi Sankyo Company Limited, Beijing, China), and cefotaxime (North China Pharmaceutical Hebei Huamin Pharmaceutical Co., Ltd., China).

[1] = test system: K. pneumoniae isolate KPCZA02; test: microbe, parasite or virus in culture; format: cell-based; details: Klebsiella pneumoniae
Procedure: as §1

E. coli DH5α = test: MIC by agar dilution, E. coli DH5α; format: cell-based; details: Escherichia coli
Procedure: as §1, §2

E. coli DH5α-pCR2.1 = test: MIC by agar dilution, DH5α with blank vector pCR2.1; format: cell-based; details: Escherichia coli
Procedure: as §1, §2
(§3) The blaCMY cloning was performed using a TA cloning kit (Invitrogen, Shanghai, China). The blaCMY-178 gene combined with its predicted promoter was amplified from isolate AR13438. Then, the blaCMY-178 gene was cloned into the linearized vector pCR2.1 using T4 DNA ligase (Invitrogen). The blaCMY-172 gene was cloned from KPCZA02 with the same method. The resulting plasmids were chemically transformed into E. coli DH5α. The positive transformants were identified by blue-white screening in MH agar containing 50 μg/mL kanamycin and were further confirmed by Sanger sequencing. The pCR2.1 blank vector was also transformed into E. coli DH5α as a control. The primers used for cloning were CMY-F and CMY-R (see Table S2 in the supplemental material). Relative CMY expression was measured by reverse transcription-quantitative PCR as described previously ([34]). Specific quantitative PCR (qPCR) primers (q-recA-F/R and q-CMY-F/R) were designed (Table S2).

[2] = test system: E. coli DH5α-pCR2.1-CMY-172; test: MIC by agar dilution, transformant containing blaCMY-172; format: cell-based; details: Escherichia coli
Procedure: as §1, §2, §3

E. coli J53 = test: MIC by agar dilution, recipient E. coli J53; format: cell-based; details: Escherichia coli
Procedure: as §1, §2
(§4) Conjugation experiments were performed by filter mating using sodium-azide-resistant E. coli J53 as the recipient, as described previously. Transconjugants were selected with MH agar containing 100 μg/mL sodium azide and 4 μg/mL ceftazidime-avibactam; furthermore, transconjugants were named J53-AR13438 and J53-KPCZA02, respectively. We compared genomes of AR13438 and J53 to select a unique gene (gtrA) to J53. The blaCMY-178-postive transconjugants were confirmed by PCR and MALDI-TOF MS (see Fig. S9 in the supplemental material). The primers used for PCR were gtrA-F, gtrA-R, CMY-F, and CMY-R (Table S1). The transfer frequencies were calculated as the number of transconjugants (CFU/mL) divided by the number of recipients (CFU/mL). Donors and recipients were mixed at 1:1 for the transfer frequency experiment. S1-PFGE and Southern blotting were performed to define the location of blaCMY-178 and confirm the transmission of the plasmid as described previously ([35]). The MIC profiles of transconjugants were also determined by the agar dilution method.

E. coli J53-AR13438 = test: MIC by agar dilution, conjugant containing pAR13438_2; format: cell-based; details: Escherichia coli, J53AR13438, E. coli J53-AR13438 (blaCMY-178)
Procedure: as §1
as §4, with “The blaCMY-178-postive transconjugants were confirmed by PCR and MALDI-TOF MS (see Fig. S9 in the supplemental material).” left out

E. coli J53-KPCZA02 = test: MIC by agar dilution, conjugant containing pKPCZA02_4; format: cell-based; details: Escherichia coli, J53KPCZA02, E. coli J53-KPCZA02 (blaCMY-172)
Procedure: as §1
as §4, with “The blaCMY-178-postive transconjugants were confirmed by PCR and MALDI-TOF MS (see Fig. S9 in the supplemental material).” left out

[3] = test system: E. coli DH5α-pCR2.1-CMY-2; test: MIC by agar dilution, transformant containing blaCMY-2; format: cell-based; details: Escherichia coli
[4] = test system: E. coli DH5α-pCR2.1-CMY-178; test: MIC by agar dilution, transformant containing blaCMY-178; format: cell-based, Escherichia coli; details: for MIC: Escherichia coli, E. coli DH5α-pCR2.1-CMY-178, agar dilution; for Increase of MIC by blaCMY-178 compared with blaCMY-172: transformants in E. coli DH5α
Procedure: as §1, §2, §3

With `NCC[C@H](O)C(=O)N[C@@H]1C[C@H](N)[C@@H](O[C@H]2O[C@H](CN)[C@@H](O)[C@H](O)[C@H]2O)[C@H](O)[C@H]1O[C@H]1O[C@H](CO)[C@@H](O)[C@H](N)[C@H]1O` [AMK, amikacin] the Antimicrobial susceptibility category (E. coli strain AR13438) was “resistant”, the MIC (E. coli strain AR13438) was greater than 256 µg/mL and the MIC [1] was greater than 256 µg/mL. The MIC (E. coli DH5α) was 1 µg/mL (≈ 1.71 µM), the MIC (E. coli DH5α-pCR2.1) was 1 µg/mL (≈ 1.71 µM) and the MIC [2] was 2 µg/mL (≈ 3.42 µM). For the same compound, the MIC (E. coli J53) was 2 µg/mL (≈ 3.42 µM), the MIC (E. coli J53-AR13438) was 2 µg/mL (≈ 3.42 µM) and the MIC (E. coli J53-KPCZA02) was 2 µg/mL (≈ 3.42 µM).

With `C[C@H]1[C@H](NC(=O)/C(=N\OC(C)(C)C(=O)O)c2csc(N)n2)C(=O)N1S(=O)(=O)O` [ATM, aztreonam] the MIC (E. coli strain AR13438) was 32 µg/mL (≈ 73.5 µM), the MIC (E. coli DH5α) was 0.06 µg/mL (≈ 0.138 µM) and the MIC (E. coli DH5α-pCR2.1) was 0.12 µg/mL (≈ 0.276 µM). For the same compound, the MIC [3] was 32 µg/mL (≈ 73.5 µM), the MIC [4] was 32 µg/mL (≈ 73.5 µM) and the “Increase of MIC by blaCMY-178 compared with blaCMY-172” value (“Increase of MIC” below) [4] was 4 fold. It also gave an MIC [2] of 8 µg/mL (≈ 18.4 µM), an MIC (E. coli J53) of 0.12 µg/mL (≈ 0.276 µM) and an MIC (E. coli J53-AR13438) of 32 µg/mL (≈ 73.5 µM).

`CC(C)(O/N=C(\C(=O)N[C@@H]1C(=O)N2C(C(=O)[O-])=C(C[N+]3(CCNC(=O)c4ccc(O)c(O)c4Cl)CCCC3)CS[C@H]12)c1csc(N)n1)C(=O)O` [CFDC, cefiderocol] was tested, and the Antimicrobial susceptibility category (E. coli strain AR13438) was “susceptible”, the MIC (E. coli strain AR13438) was 0.25 µg/mL (≈ 0.332 µM) and the MIC [1] was 1 µg/mL (≈ 1.33 µM). The MIC (E. coli DH5α) was less than 0.03 µg/mL, the MIC (E. coli DH5α-pCR2.1) was less than 0.03 µg/mL and the MIC [3] was 0.125 µg/mL (≈ 0.166 µM). It also gave an MIC [4] of 1 µg/mL (≈ 1.33 µM) and an MIC [2] of 1 µg/mL (≈ 1.33 µM).

`CO/N=C(\C(=O)N[C@@H]1C(=O)N2C(C(=O)O)=C(COC(C)=O)CS[C@H]12)c1csc(N)n1` [CTX, cefotaxime] showed an MIC (E. coli strain AR13438) greater than 128 µg/mL, an MIC [1] greater than 128 µg/mL and an MIC (E. coli DH5α) of 0.03 µg/mL (≈ 0.0659 µM). It also gave an MIC (E. coli DH5α-pCR2.1) of 0.06 µg/mL (≈ 0.132 µM), an MIC [3] of 32 µg/mL (≈ 70.3 µM) and an MIC [4] of 128 µg/mL (≈ 281 µM). The “Increase of MIC” value [4] was 4 fold, the MIC [2] was 32 µg/mL (≈ 70.3 µM) and the MIC (E. coli J53) was 0.06 µg/mL (≈ 0.132 µM). It also gave an MIC (E. coli J53-AR13438) of 32 µg/mL (≈ 70.3 µM) and an MIC (E. coli J53-KPCZA02) of 16 µg/mL (≈ 35.1 µM).

`CO/N=C(\C(=O)N[C@@H]1C(=O)N2C(C(=O)O)=C(COC(N)=O)CS[C@H]12)c1ccco1` [CXM, cefuroxime] gave an MIC (E. coli strain AR13438) greater than 1020 µg/mL, an MIC [1] greater than 1020 µg/mL and an MIC (E. coli DH5α) of 4 µg/mL (≈ 9.43 µM). The MIC (E. coli DH5α-pCR2.1) was 4 µg/mL (≈ 9.43 µM), the MIC [3] was 128 µg/mL (≈ 302 µM) and the MIC [4] was 1020 µg/mL (≈ 2410 µM). For the same compound, the “Increase of MIC” value [4] was “over 4 fold”, the MIC [2] was 64 µg/mL (≈ 151 µM) and the MIC (E. coli J53) was 16 µg/mL (≈ 37.7 µM). The MIC (E. coli J53-AR13438) was 256 µg/mL (≈ 603 µM) and the MIC (E. coli J53-KPCZA02) was 256 µg/mL (≈ 603 µM).

For `CO/N=C(\C(=O)N[C@@H]1C(=O)N2C(C(=O)[O-])=C(C[N+]3(C)CCCC3)CS[C@H]12)c1csc(N)n1` [FEP, cefepime], the MIC (E. coli strain AR13438) was 128 µg/mL (≈ 266 µM), the MIC [1] was greater than 128 µg/mL and the MIC (E. coli DH5α) was 0.06 µg/mL (≈ 0.125 µM). The MIC (E. coli DH5α-pCR2.1) was 0.12 µg/mL (≈ 0.25 µM), the MIC [3] was 2 µg/mL (≈ 4.16 µM) and the MIC [4] was 64 µg/mL (≈ 133 µM). The “Increase of MIC” value [4] was 4 fold, the MIC [2] was 16 µg/mL (≈ 33.3 µM) and the MIC (E. coli J53) was 0.06 µg/mL (≈ 0.125 µM). For the same compound, the MIC (E. coli J53-AR13438) was 32 µg/mL (≈ 66.6 µM) and the MIC (E. coli J53-KPCZA02) was 32 µg/mL (≈ 66.6 µM).
